The subject of assay [1] is phosphorylation of IRF3 in THP-1 cells (STING activation). Nature of the assay: Phosphorylation of IRF3: THP-1 cell ELISA. Conditions: Homo sapiens, 3 hours incubation, read-out: THP-1 CELL P-IRF3 EC50. The assay is classed as cell-based. The method, then:
Phosphorylation of IRF3: THP-1 cell ELISA
STING activation results in recruitment of TBK1 and phosphorylation of IRF3 transcription factor before induction of type I interferons. THP-1 cells (InvivoGen) were grown in RPMI media plus 2 mM L-glutamine, 10% fetal bovine serum, and 0.5% Pen-Strep. 10^4 cells were seeded in 96-well plates and incubated overnight […]. Compounds serial diluted compounds in media (final 0.5% DMSO) were added to the cells and incubated for an additional 3 hours. After incubation, the plates were centrifuged at 2000 rpm for 5 min. The cells were then lysed in 100 μl RIPA buffer and vortexed for 30 minutes at room temperature. 25 μl of lysate was then transferred to clear polystyrene High Bind plates that had been previously coated with mouse anti-human IRF-3 capture antibody (BD Pharmigen), and allowed to incubate at 4° C. for 16 hours. The plates were then washed and incubated with rabbit anti-phospho-IRF3 detection antibody (Cell Signaling Technologies) for 1.5 hours at room temperature. Finally, an HRP-linked secondary antibody (Cell Signaling Technologies) was added for 30 min before the Glo Substrate Reagent (R&D Systems) was used generate the luminescent signal. The signal was measured using a Perkin-Elmer Envision microplate reader. Data were normalized to “% effect” with a positive control STING agonist that was known to maximize the phosphorylated IRF3 signal and the negative control was DMSO.
A general note: ELISA stands for enzyme-linked immunosorbent assay.

Assay [2] deals with THP-1 Lucia ISG cells (IRF-inducible Lucia luciferase reporter). Nature of the assay: Interferon-β induction: THP-1 ISG reporter cell line. The assay is classed as cell-based. Conditions: THP1-Lucia ISG, 24 hours incubation, read-out: THP-1 Lucia ISG Cells IFN-β EC50. The protocol: Interferon-β Induction: THP-1 ISG Reporter Cell Line
THP-1 Lucia™ ISG cells (InvivoGen) express the secreted luciferase “Lucia” reporter gene under the control of an IRF-inducible composite promotor comprised of five interferon response elements. THP-1 Lucia™ ISG cells were grown in RPMI media plus 2 mM L-glutamine, 10% fetal bovine serum, and 0.5% Pen-Strep. Hygromycin B and Zeocin were present to maintain stable transfection. 10^4 cells were seeded in 96-well plates and incubated overnight 37° C., 5% CO2. 50 μL of serial diluted compounds in media (final 0.5% DMSO) was and incubated for an additional 24 hours. After incubation, the plates were centrifuged at 2000 rpm for 10 min. 50 μl of cell culture supernatant of each well was transferred to a white, opaque 96-well plate. One pouch of QUANTI-Luc™ (InvivoGen) powder was prepared in 25 mL of endotoxin-free water and 100 μL of prepared warm QUANTI-Luc solution were added to each well containing the supernatant. The luminescence signal was measured using a Perkin-Elmer Envision microplate reader. Data were normalized to “% effect” with a positive control STING agonist that was known to maximize the luciferase signal and the negative control DMSO.

Assay [3] concerns the target T1, R232-STING (Homo sapiens (Human), UniProt Q86WV6, H232R). Description: biochemical.
For assay [4], the target named is T1, R232-STING. Conditions: read-out: R232-STING SPA-IC50 Ki; STING residues 155-341, 100 nM 3H-cGAMP; KI from IC50 with Cheng-Prusoff equation.

The EC50 is the concentration needed to bring the measured effect to its halfway point. In general, Ki refers to a dissociation constant, usually derived from enzyme kinetics or from competition with a known ligand.

Read-outs that look alike come from different tables or passages of the source.

T1 sequence (Q86WV6 155-341 H232R): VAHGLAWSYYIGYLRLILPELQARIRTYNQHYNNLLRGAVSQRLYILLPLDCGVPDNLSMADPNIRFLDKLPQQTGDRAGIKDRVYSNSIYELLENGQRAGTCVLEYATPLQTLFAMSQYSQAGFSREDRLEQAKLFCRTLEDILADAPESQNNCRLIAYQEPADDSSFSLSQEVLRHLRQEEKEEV

On to `CCn1nc(C)cc1-c1cn(CC(C)O)c(-c2nc(C(N)=O)cc3c2cnn3C)n1` (racemic) [AIP05, (Rac)-4-[4-(1-ethyl-3-methyl-1H-pyrazol-5-yl)-1-(2-hydroxypropyl)-1H-imidazol-2-yl]-1-methyl-1H-pyrazolo[4,3-c]pyridine-6-carboxamide], for which the EC50 in assay [1] is 1230 nM; in assay [2] it was 1250 nM. Moreover, on R232-STING [3], the affinity corresponds to a Ki of 27.1 nM.
With `CCn1nccc1-c1cn(C)c(-c2nc(C(N)=O)cc3c2cnn3C)n1` [AIH05, 4-[4-(1-ethyl-1H-pyrazol-5-yl)-1-methyl-1H-imidazol-2-yl]-1-methyl-1H-pyrazolo[4,3-c]pyridine-6-carboxamide], the EC50 in assay [1] and in assay [2] was over 10000 nM in each case. In addition, at R232-STING [4], the Ki was 93.3 nM.
Turning to `Cc1cc(-c2cn(C)c(-c3nc(C(N)=O)cc4c3ccn4C)n2)n(CCCO)n1` [AIJ02, 4-{4-[1-(3-hydroxypropyl)-3-methyl-1H-pyrazol-5-yl]-1-methyl-1H-imidazol-2-yl}-1-methyl-1H-pyrrolo[3,2-c]pyridine-6-carboxamide], the EC50 was determined as 1510 nM in assay [1] and 1920 nM in assay [2]. On R232-STING [3], this compound registered a Ki of 39.7 nM.
On to `COCCCn1nc(C)cc1-c1cn(C)c(-c2nc(C(N)=O)cc3c2cnn3C(F)F)n1` [AIN02, 1-(difluoromethyl)-4-{4-[1-(3-methoxypropyl)-3-methyl-1H-pyrazol-5-yl]-1-methyl-1H-imidazol-2-yl}-1H-pyrazolo[4,3-c]pyridine-6-carboxamide], for which the EC50 in assay [1] amounted to 990 nM; in assay [2] it was 1200 nM. The Ki at R232-STING [4] came to 20.9 nM.
For `COCCCn1nc(C)cc1-c1cn(C)c(-c2nc(C(N)=O)cc3c2cnn3CF)n1` [AIN03, 1-(fluoromethyl)-4-{4-[1-(3-methoxypropyl)-3-methyl-1H-pyrazol-5-yl]-1-methyl-1H-imidazol-2-yl}-1H-pyrazolo[4,3-c]pyridine-6-carboxamide], in that order: 680 nM, 850 nM and 12.8 nM.
For `CCn1nc(C)c(O)c1-c1cn(C)c(-c2nc(C(N)=O)cc3c2cnn3CC)n1` [AIN04, 1-ethyl-4-[4-(1-ethyl-4-hydroxy-3-methyl-1H-pyrazol-5-yl)-1-methyl-1H-imidazol-2-yl]-1H-pyrazolo[4,3-c]pyridine-6-carboxamide] the same measures were 370 nM, 310 nM and 2.9 nM.
For `CCn1nc(C)cc1-c1cn(CCOC)c(-c2nc(C(N)=O)cc3c2cnn3C)n1` [AIP04, 4-[4-(1-ethyl-3-methyl-1H-pyrazol-5-yl)-1-(2-methoxyethyl)-1H-imidazol-2-yl]-1-methyl-1H-pyrazolo[4,3-c]pyridine-6-carboxamide], in that order: 1140 nM, 1240 nM and 35.2 nM.
For `CCn1nc(C)cc1-c1cn(C)c(-c2nc(C(N)=O)cc3c2cnn3C)n1` [Example AIA01, 4-[4-(1-ethyl-3-methyl-1H-pyrazol-5-yl)-1-methyl-1H-imidazol-2-yl]-1-methyl-1H-pyrazolo[4,3-c]pyridine-6-carboxamide], the EC50 in assay [1] was 670 nM; in assay [2] it was 820 nM. Besides, the Ki at R232-STING [4] was found to be 10.7 nM.
For `CCn1nc(C)cc1-c1cn(C)c(-c2nc(C(N)=O)cc3c2cnn3CC)n1` [Example AIC01, 1-ethyl-4-[4-(1-ethyl-3-methyl-1H-pyrazol-5-yl)-1-methyl-1H-imidazol-2-yl]-1H-pyrazolo[4,3-c]pyridine-6-carboxamide], in that order: 1260 nM, 1170 nM and 12.1 nM.
For `CCc1nc(C)cn1-c1cn(C)c(-c2nc(C(N)=O)cc3c2cnn3C)n1` [Example AID01, 4-(2-ethyl-1′,4-dimethyl-1′H-[1,4′-biimidazol]-2′-yl)-1-methyl-1H-pyrazolo[4,3-c]pyridine-6-carboxamide], the EC50 amounted to 6420 nM in assay [1] and 6310 nM in assay [2]. For the same compound, the Ki at R232-STING [4] stood at 87.5 nM.
For `Cc1cc(-c2cn(C)c(-c3nc(C(N)=O)cc4c3cnn4C)n2)n(CCCO)n1` [Example AIE01, 4-{4-[1-(3-hydroxypropyl)-3-methyl-1H-pyrazol-5-yl]-1-methyl-1H-imidazol-2-yl}-1-methyl-1H-pyrazolo[4,3-c]pyridine-6-carboxamide], in that order: 200 nM, 220 nM and 3.6 nM.
Turning to `CCCn1nc(C)cc1-c1cn(C)c(-c2nc(C(N)=O)cc3c2cnn3C)n1` [Example AIF01, 1-methyl-4-[1-methyl-4-(3-methyl-1-propyl-1H-pyrazol-5-yl)-1H-imidazol-2-yl]-1H-pyrazolo[4,3-c]pyridine-6-carboxamide], the EC50 is 500 nM in assay [1] and 540 nM in assay [2]. In addition, on R232-STING [4], the Ki was 9.8 nM.
For `CCn1nc(C)cc1-c1cn(C)c(-c2nc(C(N)=O)nc3c2cnn3C)n1` [Example AIG01, 4-[4-(1-ethyl-3-methyl-1H-pyrazol-5-yl)-1-methyl-1H-imidazol-2-yl]-1-methyl-1H-pyrazolo[3,4-d]pyrimidine-6-carboxamide] the same measures were over 10000 nM, over 10000 nM and 81.8 nM.
For `CCn1ncc2c(-c3nc(-c4cc(C)nn4CCCO)cn3C)nc(C(N)=O)cc21` [Example AIJ01, 1-ethyl-4-{4-[1-(3-hydroxypropyl)-3-methyl-1H-pyrazol-5-yl]-1-methyl-1H-imidazol-2-yl}-1H-pyrazolo[4,3-c]pyridine-6-carboxamide] the same measures were 400 nM, 450 nM and 10.2 nM.
As to `CCn1cc(-c2cc(C)nn2CCCOC)nc1-c1nc(C(N)=O)cc2c1cnn2C` [Example AIK01, 4-{1-ethyl-4-[1-(3-methoxypropyl)-3-methyl-1H-pyrazol-5-yl]-1H-imidazol-2-yl}-1-methyl-1H-pyrazolo[4,3-c]pyridine-6-carboxamide], the EC50 in assay [1] was determined as 330 nM; in assay [2] it was 430 nM. Further, the Ki on R232-STING [4] worked out at 15.2 nM.
For `Cc1cc(-c2cn(C)c(-c3nc(C(N)=O)cc4c3cnn4C)n2)n(CCCOC(F)F)n1` [Example AIL01, 4-(4-{1-[3-(difluoromethoxy)propyl]-3-methyl-1H-pyrazol-5-yl}-1-methyl-1H-imidazol-2-yl)-1-methyl-1H-pyrazolo[4,3-c]pyridine-6-carboxamide] the same measures were 530 nM, 530 nM and 24.6 nM.
For `COCCCn1nc(C)cc1-c1cn(C)c(-c2nc(C(N)=O)cc3c2cnn3C2CC2)n1` [Example AIN01, 1-cyclopropyl-4-{4-[1-(3-methoxypropyl)-3-methyl-1H-pyrazol-5-yl]-1-methyl-1H-imidazol-2-yl}-1H-pyrazolo[4,3-c]pyridine-6-carboxamide] the same measures were 730 nM, 800 nM and 4.6 nM.
For `Cc1cc(-c2cn(C)c(-c3nc(C(N)=O)cc4c3cnn4C)n2)n(CC#N)n1` [Example AIP01, 4-{4-[1-(cyanomethyl)-3-methyl-1H-pyrazol-5-yl]-1-methyl-1H-imidazol-2-yl}-1-methyl-1H-pyrazolo[4,3-c]pyridine-6-carboxamide], in that order: over 10000 nM, over 10000 nM and 43.1 nM.
Regarding `Cc1cc(-c2cn(C)c(-c3nc(C(N)=O)cc4c3cnn4C)n2)n(CC(N)=O)n1` [Example AIP02, 4-{4-[1-(2-amino-2-oxoethyl)-3-methyl-1H-pyrazol-5-yl]-1-methyl-1H-imidazol-2-yl}-1-methyl-1H-pyrazolo[4,3-c]pyridine-6-carboxamide], the EC50 in assay [1] and in assay [2] was over 10000 nM in each case. The Ki on R232-STING [4] came to 161 nM.
For `Cc1cc(-c2cn(C)c(-c3nc(C(N)=O)cc4c3cnn4C)n2)n(CCC#N)n1` [Example AIQ01, 4-{4-[1-(2-cyanoethyl)-3-methyl-1H-pyrazol-5-yl]-1-methyl-1H-imidazol-2-yl}-1-methyl-1H-pyrazolo[4,3-c]pyridine-6-carboxamide], the EC50 in assay [1] is 2240 nM; in assay [2], 2260 nM. Further, the Ki at R232-STING [4] came out at 62.6 nM.

Values taken from US11964978B2, “Modulators of STING (stimulator of interferon genes)” (PFIZER INC., priority 2021, dated 2024).
